# Measurements published in the supplement of paper PMC10307832.
# Assays:
# Experiment in all cases: relative viability (nuclei count vs DMSO), 5 days (fraction); higher = more cells survive
# Idelalisib + Pictilisib = compound: CC[C@H](Nc1ncnc2[nH]cnc12)c1nc2cccc(F)c2c(=O)n1-c1ccccc1 [Idelalisib] + CS(=O)(=O)N1CCN(Cc2cc3nc(-c4cccc5[nH]ncc45)nc(N4CCOCC4)c3s2)CC1 [Pictilisib] (partner 1 µM)
# Method in brief: (§1)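 Relative viability divides the nuclei count in treated wells by that in vehicle wells. Lung cancer cell lines were seeded in 1536-well plates, dosed by pin tool the next day, and fixed and stained after 5 days in one step with final 0.05% Triton X-100, 1% formaldehyde and 1 ug/ml Hoechst. Dosing was a single drug or a fixed anchor-drug dose plus five library-drug doses (not always all listed) in √10 steps, and values are medians of duplicate plates imaged at 4×.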
# Pemetrexed + Trametinib = compound: Nc1nc2[nH]cc(CCc3ccc(C(=O)N[C@@H](CCC(=O)O)C(=O)O)cc3)c2c(=O)[nH]1 [Pemetrexed] + CC(=O)Nc1cccc(-n2c(=O)n(C3CC3)c(=O)c3c(Nc4ccc(I)cc4F)n(C)c(=O)c(C)c32)c1 [Trametinib] (partner 0.02 µM)
# Method in brief: as §1
# Pemetrexed + Alpelisib = compound: Nc1nc2[nH]cc(CCc3ccc(C(=O)N[C@@H](CCC(=O)O)C(=O)O)cc3)c2c(=O)[nH]1 [Pemetrexed] + Cc1nc(NC(=O)N2CCC[C@H]2C(N)=O)sc1-c1ccnc(C(C)(C)C(F)(F)F)c1 [Alpelisib] (partner 2 µM)
# Method in brief: as §1
# Pemetrexed + Olaparib = compound: Nc1nc2[nH]cc(CCc3ccc(C(=O)N[C@@H](CCC(=O)O)C(=O)O)cc3)c2c(=O)[nH]1 [Pemetrexed] + O=C(c1cc(Cc2n[nH]c(=O)c3ccccc23)ccc1F)N1CCN(C(=O)C2CC2)CC1 [Olaparib] (partner 8 µM)
# Method in brief: as §1
Cell Line,relative viability (Idelalisib + Pictilisib; first compound 0.04 µM),relative viability (Idelalisib + Pictilisib; first compound 0.1265 µM),relative viability (Idelalisib + Pictilisib; first compound 0.4 µM),relative viability (Idelalisib + Pictilisib; first compound 1.265 µM),relative viability (Idelalisib + Pictilisib; first compound 4 µM),relative viability (Pemetrexed + Trametinib; first compound 0.002 µM),relative viability (Pemetrexed + Trametinib; first compound 0.006325 µM),relative viability (Pemetrexed + Trametinib; first compound 0.02 µM),relative viability (Pemetrexed + Trametinib; first compound 0.06325 µM),relative viability (Pemetrexed + Trametinib; first compound 0.2 µM),relative viability (Pemetrexed + Alpelisib; first compound 0.002 µM),relative viability (Pemetrexed + Alpelisib; first compound 0.006325 µM),relative viability (Pemetrexed + Alpelisib; first compound 0.02 µM),relative viability (Pemetrexed + Alpelisib; first compound 0.06325 µM),relative viability (Pemetrexed + Alpelisib; first compound 0.2 µM),relative viability (Pemetrexed + Olaparib; first compound 0.002 µM),relative viability (Pemetrexed + Olaparib; first compound 0.006325 µM),relative viability (Pemetrexed + Olaparib; first compound 0.02 µM),relative viability (Pemetrexed + Olaparib; first compound 0.06325 µM),relative viability (Pemetrexed + Olaparib; first compound 0.2 µM)
LXF-289,0.894,0.78,0.722,0.873,0.745,0.685,0.673,0.729,0.676,0.637,1.04,1,1.07,1.05,0.969,1.07,1.04,1.1,1.03,0.976
NCI-H23,0.689,0.489,0.381,0.451,0.462,0.426,0.294,0.408,0.375,0.381,0.666,0.532,0.741,0.503,0.601,0.318,0.335,0.331,0.32,0.319
NCI-H322M,0.546,0.584,0.444,0.508,0.549,0.511,0.478,0.503,0.456,0.551,0.814,0.724,0.813,0.776,0.773,0.682,0.763,0.752,0.84,0.736
NCI-H358,0.359,0.355,0.281,0.342,0.355,0.133,0.117,0.151,0.125,0.125,0.917,0.79,0.538,0.314,0.27,0.582,0.622,0.66,0.397,0.151
NCI-H441,0.522,0.451,,0.375,0.393,0.536,0.501,0.448,0.303,0.247,0.667,0.686,0.932,0.531,0.53,0.458,0.534,0.56,0.567,0.252
NCI-H460,0.363,0.318,0.315,0.36,0.359,,0.0664,0.241,0.0967,0.0451,0.479,0.344,0.518,0.151,0.0576,0.237,0.35,0.484,0.437,0.116
NCI-H520,0.394,0.308,0.283,0.294,0.309,0.569,0.682,0.757,0.606,0.657,0.92,0.828,0.948,0.823,0.697,0.282,0.385,0.356,0.335,0.319
NCI-H596,0.412,0.402,0.389,0.405,0.65,0.886,0.869,0.663,0.643,0.5,0.409,0.485,0.593,0.39,0.374,0.747,0.73,0.761,0.668,0.514
NCI-H647,0.448,0.452,0.475,0.377,0.393,0.52,0.436,0.478,0.406,0.17,,1.02,1.3,0.836,0.296,0.585,0.67,0.765,0.465,0.163
NCI-H650,0.849,0.858,0.907,0.819,0.783,0.894,0.887,,1.03,1.02,1.17,0.999,1.11,0.956,1.09,0.382,0.403,,0.302,0.378
NCI-H661,0.426,0.37,0.446,0.468,0.456,0.659,0.524,0.705,0.549,0.571,0.732,0.563,0.621,0.636,0.794,0.741,0.743,0.71,0.759,0.679
NCI-H727,0.385,0.66,0.312,0.773,0.476,0.346,0.395,0.464,0.357,0.404,0.577,0.534,0.596,0.678,0.594,0.617,0.654,0.692,0.795,0.689
NCI-H838,0.505,0.469,0.346,0.531,0.469,0.555,0.53,0.664,0.393,0.169,0.989,0.878,1.14,0.934,0.372,0.755,0.75,0.837,0.471,0.216
NCI-H1355,0.521,0.501,0.4,0.376,0.449,0.404,0.441,0.392,0.416,0.418,0.805,0.768,0.822,0.843,0.858,0.676,0.709,0.731,0.754,0.691
NCI-H1395,0.714,0.525,0.564,0.613,0.557,0.932,1,1.13,0.954,1.03,0.964,0.916,1.14,1.14,1.02,0.427,0.421,0.5,0.41,0.426
NCI-H1437,0.491,0.526,0.429,0.437,0.525,0.362,0.473,0.424,0.382,0.285,0.877,0.939,0.884,0.506,0.227,0.619,0.625,0.656,0.54,0.385

Cell Line,relative viability (Idelalisib + Pictilisib; first compound 0.04 µM),relative viability (Idelalisib + Pictilisib; first compound 0.1265 µM),relative viability (Idelalisib + Pictilisib; first compound 0.4 µM),relative viability (Idelalisib + Pictilisib; first compound 1.265 µM),relative viability (Idelalisib + Pictilisib; first compound 4 µM),relative viability (Pemetrexed + Trametinib; first compound 0.002 µM),relative viability (Pemetrexed + Trametinib; first compound 0.006325 µM),relative viability (Pemetrexed + Trametinib; first compound 0.02 µM),relative viability (Pemetrexed + Trametinib; first compound 0.06325 µM),relative viability (Pemetrexed + Trametinib; first compound 0.2 µM),relative viability (Pemetrexed + Alpelisib; first compound 0.002 µM),relative viability (Pemetrexed + Alpelisib; first compound 0.006325 µM),relative viability (Pemetrexed + Alpelisib; first compound 0.02 µM),relative viability (Pemetrexed + Alpelisib; first compound 0.06325 µM),relative viability (Pemetrexed + Alpelisib; first compound 0.2 µM),relative viability (Pemetrexed + Olaparib; first compound 0.002 µM),relative viability (Pemetrexed + Olaparib; first compound 0.006325 µM),relative viability (Pemetrexed + Olaparib; first compound 0.02 µM),relative viability (Pemetrexed + Olaparib; first compound 0.06325 µM),relative viability (Pemetrexed + Olaparib; first compound 0.2 µM)
NCI-H1651,0.685,0.574,0.523,0.762,0.625,0.857,0.783,0.821,0.827,0.786,0.951,0.948,0.939,0.952,0.93,0.175,0.191,0.205,0.193,0.184
NCI-H1666,0.541,0.48,0.469,0.361,0.333,0.845,0.826,0.926,0.873,0.784,1.02,0.853,0.969,0.88,0.595,0.765,0.785,0.787,0.728,0.694
NCI-H1734,0.519,0.492,0.41,0.453,0.37,0.603,0.623,0.679,0.627,0.524,0.694,0.731,0.629,0.632,0.698,0.576,0.615,0.741,0.619,0.601
NCI-H1755,0.444,0.466,0.358,0.41,0.372,0.737,0.809,0.775,0.731,0.732,0.828,0.935,0.923,0.926,0.862,0.777,0.857,0.875,0.89,0.781
NCI-H1792,0.279,0.251,0.268,0.275,0.249,0.374,0.406,0.533,0.393,0.41,0.685,0.731,0.806,0.788,0.634,0.44,0.405,0.397,0.497,0.46
NCI-H1793,0.306,0.355,0.307,0.312,0.296,0.411,0.323,0.381,0.423,0.424,0.672,0.692,0.83,0.624,0.677,0.868,0.712,0.912,0.919,0.774
NCI-H1915,1.22,0.952,0.881,1.08,0.9,0.287,0.294,0.248,0.306,0.283,0.995,1.04,1.03,1.09,1.1,0.243,0.277,0.274,0.238,0.274
NCI-H1944,0.374,0.357,0.308,0.376,0.33,0.354,0.449,0.45,0.407,0.38,0.674,0.751,0.869,0.789,0.766,0.317,0.368,0.395,0.393,0.402
NCI-H1975,0.324,0.295,0.249,0.316,0.271,0.277,0.408,0.323,0.329,0.237,,0.63,0.704,0.535,0.4,0.645,0.748,0.765,0.677,0.323
NCI-H1993,0.804,0.8,0.807,0.896,0.803,0.457,0.439,0.551,0.522,0.549,0.731,0.645,0.661,0.754,0.785,0.885,1.02,1.21,1.06,0.798
NCI-H2009,0.85,0.767,0.798,0.84,0.768,0.303,0.256,0.316,0.249,0.27,1.15,1.13,1.22,1.12,1.08,0.648,0.689,0.714,0.651,0.661
NCI-H2023,0.221,0.279,0.153,0.241,0.266,0.502,0.553,0.537,0.392,0.183,0.573,0.521,0.558,0.524,0.289,0.431,0.463,0.456,0.36,0.158
NCI-H2085,0.531,0.452,0.38,0.451,0.413,0.605,0.47,0.553,0.583,0.576,0.91,0.952,1.07,0.951,0.952,0.755,0.74,0.802,0.806,0.789
NCI-H2087,0.989,0.743,0.853,0.907,0.904,0.145,0.173,0.215,0.212,0.249,0.939,1.02,0.926,1.01,0.603,0.595,0.585,0.626,0.534,0.539
NCI-H2126,0.525,0.53,0.404,0.515,0.521,0.55,0.522,0.591,0.567,0.533,0.737,0.758,0.75,0.703,0.742,0.861,0.965,0.886,0.889,0.777
NCI-H2170,0.313,0.312,0.228,0.295,0.29,0.916,0.915,0.923,0.955,0.912,0.723,0.831,0.905,0.869,0.824,0.573,0.62,0.652,0.633,0.555
